From US20220228112A1, “MEDIUM FOR CULTURING HEPATOCYTE, METHOD OF PRODUCING HEPATOCYTE, AND HEPATOCYTE” (FUJIFILM Corporation, priority 2019, published 2022)

Test system: human iPS cell-derived hepatocytes
Assay: P450-Glo CYP3A4 assay, CYP3A4 activity value per cell
Format: cell-based
Details: FIG. 1C; added to medium that does not contain FBS, EGF and A83-01; culture period of 1 week
Procedure: For the cell culture medium, to a medium obtained by mixing equal amounts of a DMEM/F12 basal medium and an RPMI 1640 basal medium, each of the components was added so that the concentration thereof was to be the following final concentration.
Further, to the above composition, the following components were added in combination to prepare culture media for various hepatocytes,
Using the above-described various media, human iPS cell-derived hepatocytes (FUJIFILM Wako Pure Chemical Corporation, Cat #: C1026) were seeded on a collagen-coated 96-well plate at 1×10^5 cells per well and cultured in an incubator at 37° C. and 5% carbon dioxide gas, and the medium was exchanged every 24 hours. The luminescence intensity by a P450-Glo CYP3A4 assay (Promega Corporation) was measured by using an EnSpire multimode plate reader (PerkinElmer, Inc.) and corrected by the number of cells in the well to calculate the CYP3A4 activity value per cell in the culture period of 1 week.

In the case of NC(=O)c1cccnc1 [nicotinamide], the “effect on function of hepatocytes (CYP3A4 activity per cell)” value is reported as “positive factors for improving the function of hepatocytes”.
